As usually defined, the MIC is the smallest concentration in the dilution series that meets the test's criterion for growth inhibition.

≈ marks a conversion by molar mass, not a printed value. Read-outs that look alike come from different tables or passages of the source.

Among the data in US8754054B2, “Antibacterial compounds, methods of making them, and uses thereof” (Albany Molecular Research, Inc., priority 2010, dated 2014) are MIC values, retold here.

The assay has as its system MRSA 43300. The assay can be described thus: Antibacterial activity, NCCLS dilution method (Table 9). It is filed as cell-based, S. aureus. Conditions: Staphylococcus aureus, MRSA, read-out: MRSA 43300 MIC. The source says:
NCCLS standards for antimicrobial susceptibility testing using the dilution method were followed. See: Performance Standards for Antimicrobial Susceptibility Testing; Fourteenth Informational Supplement. NCCLS Document M100-S14 (ISBN 1-56238-516-X), 2004. NCCLS, 940 West Valley Road, Suite 1400, Wayne, Pa. 19087-1898 USA, 2004; Methods for Dilution Antimicrobial Susceptibility Tests for Bacteria that Grow Aerobically; Approved Standard—Sixth Edition. NCCLS document M7-A6 (IBSBN 1-56238-486-4), NCCLS, 940 West Valley Road, Suite 1400, Wayne, Pa. 19087-1898 USA, 2003, which are hereby incorporated by reference in their entirety.

Setting [1] is: MRSA 43300, dilution method, labels marked a tested as a mixture of diastereomers.

In the case of `CO[C@@H]1[C@@H](O)[C@@H](OC)[C@@H](NC2=CC(=O)c3c(cc4c(c3O)C(=O)[C@]3(OC)[C@H](O)Cc5cc(C)c(C(=O)OCC(C)C)c(O)c5[C@]3(O)C4=O)C2=O)O[C@H]1C` [Example 36], the MIC under setting [1] came out at 0.12 µg/mL (≈ 0.162 µM).
On the same count and under the same terms, then `COC(=O)c1c(C)c(Br)c2c(c1O)[C@]1(O)C(=O)c3cc4c(c(O)c3C(=O)[C@]1(OC)[C@H](O)C2)C(=O)C=C(N[C@H]1O[C@@H](C)[C@H](OC)[C@@H](O)[C@H]1OC)C4=O` [Example 38, (6R,6aS,14aR)-Methyl 4-bromo-1,6,8,14a-tetrahydroxy-11-((2S,3R,4R,5R,6S)-4-hydroxy-3,5-dimethoxy-6-methyltetrahydro-2H-pyran-2-ylamino)-6a-methoxy-3-methyl-7,9,12,14-tetraoxo-5,6,6a,7,9,12,14,14a-octahydrobenzo[a]tetracene-2-carboxylate], with 1 µg/mL (≈ 1.29 µM); and `COC(=O)c1c(C)c(Br)c2c(c1O)[C@]1(O)C(=O)c3cc4c(c(O)c3C(=O)[C@]1(OC)[C@H](O)C2)C(=O)C(Br)=C(N[C@H]1O[C@@H](C)[C@H](OC)[C@@H](O)[C@H]1OC)C4=O` [Example 39, (6R,6aS,14aR)-Methyl 4,10-dibromo-1,6,8,14a-tetrahydroxy-11-((2S,3R,4R,5R,6S)-4-hydroxy-3,5-dimethoxy-6-methyltetrahydro-2H-pyran-2-ylamino)-6a-methoxy-3-methyl-7,9,12,14-tetraoxo-5,6,6a,7,9,12,14,14a-octahydrobenzo[a]tetracene-2-carboxylate], with 2 µg/mL (≈ 2.34 µM).
With `COC(=O)c1c(C)c(N)c2c(c1O)[C@]1(O)C(=O)c3cc4c(c(O)c3C(=O)[C@]1(OC)[C@H](O)C2)C(=O)C=C(N[C@H]1O[C@@H](C)[C@H](OC)[C@@H](O)[C@H]1OC)C4=O` [Example 42, (6R,6aS,14aR)-Methyl 4-amino-1,6,8,14a-tetrahydroxy-11-((2S,3R,4R,5R,6S)-4-hydroxy-3,5-dimethoxy-6-methyltetrahydro-2H-pyran-2-ylamino)-6a-methoxy-3-methyl-7,9,12,14-tetraoxo-5,6,6a,7,9,12,14,14a-octahydrobenzo[a]tetracene-2-carboxylate 2,2,2-trifluoroacetate], the MIC was in the range of 2 to 4 µg/mL (≈ 2.81 to 5.61 µM).
As for `C/N=C1\C=C(N[C@H]2O[C@@H](C)[C@H](OC)[C@@H](O)[C@H]2OC)C(=O)c2cc3c(c(O)c21)C(=O)[C@]1(OC)[C@H](O)Cc2cc(C)c(C(=O)OC)c(O)c2[C@]1(O)C3=O` [Example 44, (6R,6aS,14aR,E)-Methyl 1,6,8,14a-tetrahydroxy-11-((2S,3R,4R,5R,6S)-4-hydroxy-3,5-dimethoxy-6-methyltetrahydro-2H-pyran-2-ylamino)-6a-methoxy-3-methyl-9-(methylimino)-7,12,14-trioxo-5,6,6a,7,9,12,14,14a-octahydrobenzo[a]tetracene-2-carboxylate], the MIC under setting [1] fell in the range of 1 to 2 µg/mL (≈ 1.41 to 2.81 µM).
On the same count and under the same terms, then `COCC/N=C1\C=C(N[C@H]2O[C@@H](C)[C@H](OC)[C@@H](O)[C@H]2OC)C(=O)c2cc3c(c(O)c21)C(=O)[C@]1(OC)[C@H](O)Cc2cc(C)c(C(=O)OC)c(O)c2[C@]1(O)C3=O` [Example 46, (6R,6aS,14aR,E)-methyl 1,6,8,14a-tetrahydroxy-11-((2S,3R,4R,5R,6S)-4-hydroxy-3,5-dimethoxy-6-methyltetrahydro-2H-pyran-2-ylamino)-6a-methoxy-9-(2-methoxyethylimino)-3-methyl-7,12,14-trioxo-5,6,6a,7,9,12,14,14a-octahydrobenzo[a]tetracene-2-carboxylate], with 1 µg/mL (≈ 1.32 µM); and `COCCC/N=C1\C=C(N[C@H]2O[C@@H](C)[C@H](OC)[C@@H](O)[C@H]2OC)C(=O)c2cc3c(c(O)c21)C(=O)[C@]1(OC)[C@H](O)Cc2cc(C)c(C(=O)OC)c(O)c2[C@]1(O)C3=O` [Example 47, (6R,6aS,14aR,E)-Methyl 1,6,8,14a-tetrahydroxy-11-((2S,3R,4R,5R,6S)-4-hydroxy-3,5-dimethoxy-6-methyltetrahydro-2H-pyran-2-ylamino)-6a-methoxy-9-(3-methoxypropylimino)-3-methyl-7,12,14-trioxo-5,6,6a,7,9,12,14,14a-octahydrobenzo[a]tetracene-2-carboxylate], with 1 to 2 µg/mL (≈ 1.3 to 2.6 µM); and `COC(=O)c1c(C)cc2c(c1O)[C@]1(O)C(=O)c3cc4c(c(O)c3C(=O)[C@]1(OC)[C@H](O)C2)/C(=N/CCCO)C=C(N[C@H]1O[C@@H](C)[C@H](OC)[C@@H](O)[C@H]1OC)C4=O` [Example 48, (6R,6aS,14aR,E)-Methyl 1,6,8,14a-tetrahydroxy-11-((2S,3R,4R,5R,6S)-4-hydroxy-3,5-dimethoxy-6-methyltetrahydro-2H-pyran-2-ylamino)-9-(3-hydroxypropylimino)-6a-methoxy-3-methyl-7,12,14-trioxo-5,6,6a,7,9,12,14,14a-octahydrobenzo[a]tetracene-2-carboxylate], with 1 µg/mL (≈ 1.32 µM).
Regarding `CO/N=C1/[C@@H](OC)[C@H](C)O[C@H](NC2=CC(=O)c3c(cc4c(c3O)C(=O)[C@]3(OC)[C@H](O)Cc5cc(C)c(C(=O)OC)c(O)c5[C@]3(O)C4=O)C2=O)[C@@H]1OC` [Example 50, (6R,6aS,14aR)-Methyl 11-((2S,3R,5R,6S,Z)-3,5-dimethoxy-4-(methoxyimino)-6-methyltetrahydro-2H-pyran-2-ylamino)-1,6,8,14a-tetrahydroxy-6a-methoxy-3-methyl-7,9,12,14-tetraoxo-5,6,6a,7,9,12,14,14a-octahydrobenzo[a]tetracene-2-carboxylate], the MIC under setting [1] stood at 0.25 µg/mL (≈ 0.345 µM).
`COC(=O)c1c(C)cc2c(c1O)[C@]1(O)C(=O)c3cc4c(c(O)c3C(=O)[C@]1(OC)[C@H](O)C2)C(=O)C=C(N[C@H]1O[C@@H](C)[C@H](OC)/C(=N/OCC(=O)O)[C@H]1OC)C4=O` [Example 51, 2-((Z)-((2S,3R,5R,6S)-3,5-Dimethoxy-2-methyl-6-((6R,6aS,14aR)-1,6,8,14a-tetrahydroxy-6a-methoxy-2-(methoxycarbonyl)-3-methyl-7,9,12,14-tetraoxo-5,6,6a,7,9,12,14,14a-octahydrobenzo[a]tetracen-11-ylamino)-2H-pyran-4(3H,5H,6H)-ylidene)aminooxy)acetic acid]: the MIC under setting [1] amounted to 8 µg/mL (≈ 10.4 µM).
`COC(=O)c1c(C)cc2c(c1O)[C@]1(O)C(=O)c3cc4c(c(O)c3C(=O)[C@]1(OC)[C@H](O)C2)C(=O)C=C(N[C@H]1O[C@@H](C)[C@H](OC)/C(=N/OCCN)[C@H]1OC)C4=O` [Example 52, (6R,6aS,14aR)-Methyl 11-((2S,3R,5R,6S,Z)-4-(2-aminoethoxyimino)-3,5-dimethoxy-6-methyltetrahydro-2H-pyran-2-ylamino)-1,6,8,14a-tetrahydroxy-6a-methoxy-3-methyl-7,9,12,14-tetraoxo-5,6,6a,7,9,12,14,14a-octahydrobenzo[a]tetracene-2-carboxylate]: the MIC under setting [1] lay in the range of 0.12 to 0.25 µg/mL (≈ 0.159 to 0.332 µM).
On the same count and under the same terms, with `COC(=O)c1c(C)cc2c(c1O)[C@]1(O)C(=O)c3cc4c(c(O)c3C(=O)[C@]1(OC)/C(=N/O)C2)C(=O)C=C(N[C@H]1O[C@@H](C)[C@H](OC)/C(=N/O)[C@H]1OC)C4=O` [Example 53, (6aS,14aR,E)-Methyl 1,8,14a-trihydroxy-6-(hydroxyimino)-11-((2S,3R,5R,6S,Z)-4-(hydroxyimino)-3,5-dimethoxy-6-methyltetrahydro-2H-pyran-2-ylamino)-6a-methoxy-3-methyl-7,9,12,14-tetraoxo-5,6,6a,7,9,12,14,14a-octahydrobenzo[a]tetracene-2-carboxylate] the figure was 0.12 µg/mL (≈ 0.166 µM); with `COC(=O)c1c(C)cc2c(c1O)[C@]1(O)C(=O)c3cc4c(c(O)c3C(=O)[C@]1(OC)[C@H](O)C2)C(=O)C=C(N[C@H]1O[C@@H](C)[C@H](OC)[C@@H](O[C@@H]2O[C@H](CO)[C@@H](O)[C@H](O)[C@H]2O)[C@H]1OC)C4=O` [Example 54, (6R,6aS,14aR)-Methyl 11-((2S,3R,4R,5S,6S)-3,5-dimethoxy-6-methyl-4-((2S,3R,4S,5S,6R)-3,4,5-trihydroxy-6-(hydroxymethyl)tetrahydro-2H-pyran-2-yloxy)tetrahydro-2H-pyran-2-ylamino)-1,6,8,14a-tetrahydroxy-6a-methoxy-3-methyl-7,9,12,14-tetraoxo-5,6,6a,7,9,12,14,14a-octahydrobenzo[a]tetracene-2-carboxylate], 2 µg/mL (≈ 2.33 µM).
Regarding `CCOC(=O)CCC1(O)C(N[C@H]2O[C@@H](C)[C@H](OC)[C@@H](O)[C@H]2OC)=CC(=N)c2c1cc1c(c2O)C(=O)[C@]2(OC)[C@H](O)Cc3cc(C)c(C(=O)OC)c(O)c3[C@]2(O)C1=O` (stereo partly drawn) [Example 59, (6R,6aS,14aR)-methyl 12-(3-ethoxy-3-oxopropyl)-1,6,8,12,14a-pentahydroxy-11-((2S,3R,4R,5R,6S)-4-hydroxy-3,5-dimethoxy-6-methyltetrahydro-2H-pyran-2-ylamino)-9-imino-6a-methoxy-3-methyl-7,14-dioxo-5,6,6a,7,9,12,14,14a-octahydrobenzo[a]tetracene-2-carboxylate], the MIC under setting [1] was determined as 32 µg/mL (≈ 40.1 µM).
With `COC(=O)c1c(C)cc2c(c1O)[C@]1(O)C(=O)c3cc4c5c(nc(=O)oc5c3C(=O)[C@]1(OC)[C@H](O)C2)C=C(N[C@H]1O[C@@H](C)[C@H](OC)[C@@H](O)[C@H]1OC)C4=O` [Example 60, (8aR,12R,12aS)-8a,12-Dihydroxy-5-((2S,3R,4R,5R,6S)-4-hydroxy-3,5-dimethoxy-6-methyltetrahydro-2H-pyran-2-ylamino)-12a-methoxy-8a,9,10,11,12,12a-hexahydro-(1-hydroxy-2-methoxycarbonyl-3-methylbenzo) [9,10-a]tetraceno[1,12-de][1,3]oxazine-2,6,8,13-tetraone], the MIC under setting [1] was 0.12 to 0.5 µg/mL (≈ 0.166 to 0.692 µM).
